The values that follow come from PubChem BioAssay AID1996.

Values after ≈ are worked out from the molar mass of the structure shown.

The conditions of this series: buffer; pH 7.4; 200.0 µM.
A word on the solubility (kinetic): it is the concentration staying in solution when a stock, usually in DMSO, is diluted into the medium. Consider `CCCCOc1ccc(C2(C)NC(=O)NC2=O)cc1` (centres undefined), for which the kinetic solubility came to 31.2 µg/mL (≈ 119 µM).
Under `CCC(c1ccc(C)cc1)N1C(=O)C2C3CCC(O3)C2C1=O` (centres undefined) stands 41.1 µg/mL (≈ 137 µM); under `Cc1ccc(NC(=O)CCc2nc3ccccc3[nH]2)cc1C`, 0.3 µg/mL (≈ 1.02 µM).
The molecule `Cc1ccc(C2(c3noc(CN(C)CC4CCCCO4)n3)CCCC2)cc1` (centres undefined) gave a kinetic solubility of 21.2 µg/mL (≈ 57.4 µM).
Under `CCCCc1ccc(NC(=O)C2CCCC2)cc1` stands 1.9 µg/mL (≈ 7.74 µM).
As for `CNC(=O)CSc1nnc(-c2ccco2)n1-c1ccccc1`, the kinetic solubility was more than 47.2 µg/mL.
For `Cc1ccccc1CC(=O)N1CCN(C(=O)C2CCCO2)CC1` (centres undefined) the value was more than 47.5 µg/mL; for `CC(C)(Cc1ccc(O)cc1)NC(=O)SCc1ccccc1`, more than 47.3 µg/mL; for `O=c1sc2ccccc2c(N2CCCCC2)c1[N+](=O)[O-]`, 20.4 µg/mL (≈ 70.3 µM).
For `O=C(Nc1ccc(C(=O)c2ccccc2)cc1)c1ccccc1` the value was less than 0.6 µg/mL; for `CNC(=S)N(Cc1ccc(Cl)cc1)Cc1cccs1`, 16 µg/mL (≈ 51.5 µM); for `O=C(NCc1ccco1)c1cnn2cccnc12`, more than 36.3 µg/mL.
`CCn1c(CNC(=O)C2CCCCC2)cc2ccccc21` showed a kinetic solubility of 0.4 µg/mL (≈ 1.41 µM).
For `Cc1ccc(C(=O)COC(=O)c2cnccn2)cc1C` the value was 38.7 µg/mL (≈ 143 µM).
Under `Cc1cc(C)cc(NC(=O)C[n+]2ccccc2)c1.[Cl-]` stands more than 41.5 µg/mL; under `O=C(CSc1cccc2cccnc12)Nc1ccccc1F`, 7.3 µg/mL (≈ 23.4 µM).
Under `NC(=O)c1ccccc1NC(=O)CN1CCCCCC1` stands more than 41.3 µg/mL; under `CC(=Nc1ccccc1N)c1c(O)n(C)c(=O)[nH]c1=O`, more than 41.1 µg/mL.
`O=C1NC(c2ccccc2)Oc2ccccc21` (centres undefined) came in with a kinetic solubility of 22.9 µg/mL (≈ 102 µM).
Under `Cc1cccc(-n2cnc3sc(C)c(C)c3c2=O)c1` stands 2.5 µg/mL (≈ 9.25 µM); under `Cc1ccc2c(c1)CCCN2C(=O)CSc1ccccc1`, 19.5 µg/mL (≈ 65.6 µM).
For `Cc1nccn1Cc1ccccc1` the value was 24.7 µg/mL (≈ 143 µM); for `CC(Sc1nc2ccccc2[nH]1)C(=O)Nc1ccccc1F` (centres undefined), 43.9 µg/mL (≈ 139 µM); for `CCCCNc1ccc(C(=O)OCCN(C)C)cc1.Cl`, more than 45.1 µg/mL.
`COc1ccccc1OCCNC(=O)Nc1cc(F)c(F)cc1Cl` had a kinetic solubility of 0.7 µg/mL (≈ 1.96 µM).
For `O=S(=O)(Nc1ccc(C(F)(F)F)cn1)c1ccccc1` the value was 45.3 µg/mL (≈ 150 µM).
As to `O=C(NC1CCN(C(=O)NCc2ccccc2)CC1)c1ccccc1`, the kinetic solubility came out at 6.2 µg/mL (≈ 18.4 µM).
For `CC(=O)N=c1sc(S(N)(=O)=O)nn1C` the value was more than 35.4 µg/mL; for `COc1ccccc1-n1c(-c2ccccc2)nc2ccccc2c1=O`, more than 49.3 µg/mL; for `Cc1ccc(Sc2ncnc3onc(C)c23)c(C)c1`, 1.9 µg/mL (≈ 7 µM).
For `Cc1[nH]c2ccccc2c1C(=O)C(C)OC(=O)c1ccc(Cl)nc1` (centres undefined) the value was 26.6 µg/mL (≈ 77.6 µM); for `COc1ccc(CNC(=O)C(C)OC(=O)c2cccc(N(C)C)c2)cc1` (centres undefined), 37.8 µg/mL (≈ 106 µM); for `Cc1ccc(O)c(CNc2nccs2)c1`, 7.4 µg/mL (≈ 33.6 µM).
Consider `O=C(OCC(=O)N1CCc2ccccc2C1)c1ccc(F)cc1Cl`, for which the solubility (kinetic) was 37.2 µg/mL (≈ 107 µM).
For `Cc1ccc(-c2nc(Nc3ccc(O)cc3)c3ccccc3n2)cc1` the value was 0.9 µg/mL (≈ 2.75 µM); for `CCn1c2ccccc2c2nc3cc(S(=O)(=O)N4CCOCC4)ccc3nc21`, 2.4 µg/mL (≈ 6.05 µM); for `Cc1ccc(NC(=O)Cc2ccsc2)cc1S(=O)(=O)N1CCOCC1`, more than 57.1 µg/mL.
Under `O=C(Cc1c(Cl)cccc1Cl)OCC(=O)N1CCOCC1` stands more than 49.8 µg/mL.
For `O=C(COC(=O)c1ccc2c(c1)OCCO2)Nc1ccc(F)cc1F` the value was 6.9 µg/mL (≈ 19.8 µM); for `O=C(COC(=O)c1cccs1)NCCCc1ccccc1`, 20.1 µg/mL (≈ 66.3 µM); for `COC(=O)c1[nH]c2ccccc2c1NC(=O)C(C)N1CCOCC1` (centres undefined), more than 49.7 µg/mL.
`CC(C)n1cnnc1SCC(=O)Nc1cccnc1Cl` yielded a solubility (kinetic) of more than 46.8 µg/mL.
For `O=C(CN1C(=O)C(=O)c2ccccc21)c1ccccc1` the value was 33.8 µg/mL (≈ 127 µM); for `O=C(Nc1cccc2cccnc12)c1ccc(Cl)cc1Cl`, less than 0.3 µg/mL.
For `Cc1ccc(CN2C(=O)CSC2c2ccc(F)cc2)cc1` (centres undefined) the value was 16.8 µg/mL (≈ 55.7 µM); for `CCCNC(=O)c1ccc2c(c1)S(=O)(=O)c1ccccc1C2=O`, 7.9 µg/mL (≈ 24 µM); for `Clc1ccc(C(c2ccccc2)N2CCN(c3ccccn3)CC2)cc1` (centres undefined), 0.9 µg/mL (≈ 2.47 µM).
As for `Cn1c(-c2cccc([N+](=O)[O-])c2)[n+](C)c2ccccc21.[Cl-]`, the kinetic solubility was more than 45.6 µg/mL.
Under `Cc1ccc(S(=O)(=O)NCC(=O)OCC(=O)NC2CCCCC2)cc1` stands more than 55.3 µg/mL.
Under `CCOc1ccc2nc(NC(=O)CN3CCN(CC)CC3)sc2c1` stands 47.6 µg/mL (≈ 137 µM); under `CC(Cc1ccccc1)NC(=O)Cc1ccc([N+](=O)[O-])cc1` (centres undefined), 22.6 µg/mL (≈ 75.8 µM); under `CN(C)c1cc[n+](CC(=O)c2cccs2)cc1.[Cl-]`, 41.7 µg/mL.
Under `CCOC(=O)CNc1nc(Cl)nc(NC(C)(C)C)n1` stands more than 43.2 µg/mL; under `Cn1c(SCc2ccccc2C#N)nc2ccccc2c1=O`, 1 µg/mL (≈ 3.25 µM); under `C=CCNC(=O)c1cc2c(=O)n3cccc(C)c3nc2s1`, 3.4 µg/mL (≈ 11.4 µM).
In turn, `O=Cc1ccc(OCc2cn3ccccc3n2)cc1` had a solubility (kinetic) of more than 37.8 µg/mL.
For `Cc1ccccc1CNCc1ccc2c(c1)OCO2.O=C(O)C(=O)O` the value was more than 51.8 µg/mL; for `O=C(O)/C=C/C(=O)Nc1ccc(OC(F)F)cc1`, more than 38.6 µg/mL; for `Cc1cc(C)c(C)c(OCCNCc2ccccc2)c1.O=C(O)C(=O)O`, more than 53.9 µg/mL.
For `Cn1c(SCc2ccc(F)cc2)nnc1-c1ccncc1` the value was more than 45.1 µg/mL; for `COc1cc(NC(=O)c2ccccc2)ccc1NC(=O)Cc1ccccc1`, less than 0.4 µg/mL; for `O=C1CC(=O)N(c2ccc(Cl)cc2)C(=O)N1`, more than 35.8 µg/mL.
As for `COC(=O)c1ccc(NS(=O)(=O)c2ccc(S(=O)(=O)N3CCOCC3)cc2)cc1`, the solubility (kinetic) is more than 66.1 µg/mL.
For the molecule `Cc1cccc(Nc2nc(C)cc(C)n2)c1.Cl`, the kinetic solubility was 20.1 µg/mL.
For `Cl.NCCc1nnc(SCc2ccccc2Cl)o1` the value was more than 45.9 µg/mL.
Under `CC1CCN(C(=O)c2ccc(CNS(=O)(=O)c3ccc(C(C)(C)C)cc3)cc2)CC1` stands 8.3 µg/mL (≈ 19.4 µM); under `Cc1cccc(OCC(=O)NCCCNC(=O)c2ccco2)c1`, 46.8 µg/mL (≈ 148 µM).
For `C=CCNC(=S)/N=c1/ccccn1Cc1ccccc1` the value was 39.6 µg/mL (≈ 140 µM).
The molecule `COc1cccc(NC2=C(NCCO)C(=O)c3ccccc3C2=O)c1` showed a kinetic solubility of 47.4 µg/mL (≈ 140 µM).
Under `COc1ccc(-c2nc3ccccc3c(=O)n2CCc2ccc(O)cc2)cc1` stands 12.4 µg/mL (≈ 33.3 µM); under `COc1ccc(NC(=O)C2CC3CCC2C3)c(OC)c1` (centres undefined), 31.5 µg/mL (≈ 114 µM); under `O=S(=O)(c1cccs1)N1CCC2(CC1)OCCO2`, more than 43.4 µg/mL.
In the case of `CCOc1ccc(CNc2ncc(-c3ccccc3)n2C)cc1`, the solubility (kinetic) came out at 26 µg/mL (≈ 84.6 µM).
Under `Cc1ccc2cc3cc(C(=O)NC4CC4)oc3nc2c1` stands 1.3 µg/mL (≈ 4.88 µM); under `O=[N+]([O-])c1ccccc1S(=O)(=O)N1CCN(Cc2ccccc2)CC1`, 24.4 µg/mL (≈ 67.5 µM).
`Cc1cccc(-c2noc(CN(C)C(=O)c3ccoc3C)n2)c1` yielded a solubility (kinetic) of 40.9 µg/mL (≈ 131 µM).
For `O=C(CN1C(=O)C2C3C=CC(C3)C2C1=O)OCC(=O)c1ccc(Cl)cc1` (centres undefined) the value was more than 56.1 µg/mL; for `CN(c1ccc(F)cc1)S(=O)(=O)c1ccc(Cl)c(C(=O)OCC(=O)NC2CC2)c1`, 11.7 µg/mL (≈ 26.5 µM).
`C=COC(=O)c1sc2nc(C)cc(C)c2c1N` came in with a kinetic solubility of 0.5 µg/mL (≈ 2.01 µM).
Under `Cc1ccc(OCCNC(=O)c2ccc3c(c2)OCO3)cc1` stands 14.4 µg/mL (≈ 48.1 µM).
For `N/C(=N\OC(=O)c1cc([N+](=O)[O-])ccc1Cl)c1ccccn1` the value was 11.2 µg/mL (≈ 34.9 µM); for `COCC(C)NC(=O)c1ccc2c(c1)S(=O)(=O)c1ccccc1C2=O` (centres undefined), more than 53.9 µg/mL; for `CCOC(=O)N1CCN(CC(c2ccccc2)c2ccccc2)CC1`, 25.6 µg/mL (≈ 75.6 µM).
Under `Cc1cc(NC(=O)COC(=O)C2CSC3(C)CCC(=O)N23)ccc1Br` (centres undefined) stands more than 64.1 µg/mL; under `CCOc1ccccc1NC(=O)c1cc2ccccc2oc1=O`, less than 0.7 µg/mL.
Turning to `Cc1ccc(N2CCN(S(=O)(=O)c3ccc(C)cc3)CC2)cc1`, the kinetic solubility is less than 0.4 µg/mL.
`O=C(NCCCCc1ccccc1)Nc1cccc(F)c1` returned a solubility (kinetic) of 8.2 µg/mL (≈ 28.6 µM).
Turning to `CCC(C)[C@H](NC(=O)NCc1ccc(F)cc1)C(=O)O` (some centres undefined), the solubility (kinetic) was more than 42.3 µg/mL.
Take `O=c1c(Cc2ccccc2)c(O)ccn1Cc1ccc2c(c1)OCO2`: the solubility (kinetic) was 2.7 µg/mL (≈ 8.05 µM).
For `CC1(C)c2ccccc2-n2c1cc1oc(=O)cc(O)c1c2=O` the value was 35.6 µg/mL (≈ 121 µM); for `O=C(COC(=O)/C=C/c1ccc(Cl)c(Cl)c1)NC1CC1`, 4.4 µg/mL (≈ 14 µM); for `Cc1cccc2sc(NC(=O)CN3C(=O)NC4(CCCC4)C3=O)nc12`, 46.6 µg/mL (≈ 130 µM).
For `Cn1c(=O)c([N+](=O)[O-])c(NCC2CCCO2)c2ccccc21` (centres undefined) the value was more than 45.5 µg/mL; for `Cc1cccc(NC(=O)CSc2nncn2-c2ccccn2)c1`, more than 48.8 µg/mL; for `OC(C#CCN1CCCCC1)(c1ccccc1)c1ccccc1`, 13 µg/mL (≈ 42.6 µM).
Under `CC(=O)N1CCC(C(=O)Nc2ccc3c(c2)CCC3)CC1` stands more than 43 µg/mL; under `CCCCc1c(C)nc2c(OC)cccc2c1SCC(=O)O`, more than 47.9 µg/mL; under `O=C(NCc1ccc2c(c1)OCO2)c1ccc(Br)o1`, more than 48.6 µg/mL.
In the case of `C/C(=N/OC(=O)c1ccc(Br)cc1)c1ccc(C)cc1`, the solubility (kinetic) is less than 0.7 µg/mL.
For `COc1ccc(/C=N/NC(=O)c2cccnc2)cc1` the value was more than 38.3 µg/mL.
As for `CCC1Sc2ccccc2N(CC(=O)NC2CCCCC2)C1=O` (centres undefined), the solubility (kinetic) was more than 49.9 µg/mL.
Under `CCN(CC)CCN(C(=O)/C=C/c1cccs1)c1nc2ccc(C)cc2s1.Cl` stands 0.6 µg/mL; under `CNc1ccccc1NC(=O)CCn1c(=S)oc2ccccc21`, 5.6 µg/mL (≈ 17.1 µM); under `CC(C)N(Cc1cnn(C)c1)Cc1nc(Cc2ccccc2Cl)no1`, more than 54 µg/mL.
